Consider 15 molecules from article PMC6902048, “UGT85A84 Catalyzes the Glycosylation of Aromatic Monoterpenes in Osmanthus fragrans Lour. Flowers” (Frontiers in Plant Science, 2019).

For one experiment, the system named is CsGT1. More on the design: method as in Shoji et al., 2015. The following applies: geraniol = 100%; ref Shoji et al., 2015; cited from earlier work.
In the next experiment the test system is UGTs from Vitis vinifera. Set-up: method as in Friedericke et al., 2014a; Friedericke et al., 2014b. The following applies: several Vitis vinifera UGTs, enzymes not named, ref Friedericke et al., 2014a, 2014b; cited from earlier work.
Experiment [1] concerns UGTs from Camellia sinensis. More on the design: method as in Shoji et al., 2015. Conditions: enzymes not named, ref Shoji et al., 2015; cited from earlier work.
The subject of experiment [2] is UGT85A84. Description: OfUGT85A84 enzyme assay with purified recombinant protein (LC-MS, Michaelis-Menten fitting). The following applies: for Glycosylated products formed with the sugar donor (LC-MS): 0.5 mM sugar donor with 0.5 mM linalool or linalool oxide, 1 h or 16 h incubation at 37°C. Format: biochemical, Osmanthus fragrans. As for the experimental part: The full-length UGT85A84 ORF was amplified and cloned into the pET21b and pET15b expression vectors (Novagen) using the primers listed in Table S2 . The two plasmids were co-transformed into Escherichia. coli BL21 (DE3) pLysS cells (Promega, Madison, WI, USA). The co-transformed cells were cultured in lysogeny broth medium supplemented with 100 µg/ml ampicillin at 37°C until OD600 approached 1.0–1.2. The temperature was then shifted to 16°C, and the cells were incubated with 0.2 mM isopropyl β-D-1-thiogalactopyranoside for 16 h. Subsequently, the cells were harvested by centrifugation, resuspended in lysis buffer (pH 8.0) containing 25 mM Tris-HCl and 150 mM NaCl and lysed by a JN-02 homogenizer. […] The eluted protein was further purified by anion-exchange chromatography (Source 15Q 10/100, GE Healthcare) with a linear NaCl gradient in the buffer (pH 8.0) containing 25mM Tris-HCl, 1M NaCl, and 2mM dithiothreitol. Then, the elution peak was concentrated to 1 ml and subjected to size-exclusion chromatography (Superdex-200 Increase 10/300, GE Healthcare) in the buffer (pH 8.0) containing 25mM Tris-HCl, 150mM NaCl, and 5mM dithiothreitol (DTT). The purity of the protein was analyzed by sodium dodecyl sulfate polyacrylamide gel electrophoresis (SDS-PAGE) and the protein was quantified using a NanoDrop 2000 spectrophotometer (Thermo Scientific, USA). Enzymatic activity assays were carried out according to the description by [Shoji et al. (2015)] with modification. […] After incubation of the mixture at 37°C for 16 h, the reaction was terminated by the addition of 1 µl of 24% trichloroacetic acid (TCA). Except for the concentrations of substrates, the same assay conditions were used for measuring the UGT85A84 kinetic parameters. […] All the reactions were incubated at 37°C for 1 h and repeated in triplicate. The reaction products were subjected to LC-MS analysis. The apparent K m and k cat values for each aglycone and sugar donor were determined by Michaelis-Menten fitting in OriginPro 9.1 software. LC-MS analysis was performed in the Thermo Scientific™ UltiMate™ 3000RS system. The separation was conducted on a Thermo Scientific™ Syncronis C18 column (100*2.1 mm, 1.7µm) at 40°C. Mobile phases consisted of phase A referring to water with 0.1% formic acid and phase B referring to methanol with 0.1% formic acid. […] The samples were eluted with the following linear gradient: 0–1min, 2% B; 1–5min, 2-95% B; 5–7min, 95% B; 7–7.1, 95–2% B; 7.1–9, 2% B. The MS analysis was performed on a Thermo Scientific™ Q Exactive Plus hybrid quadrupole-Orbitrap benchtop high-resolution mass spectrometer equipped with heated electrospray ionization. […] Identification of target compounds was carried out using Data-Dependent Acquisition (DDA). The HCD collision energy was set at NCE 20 for negative mode and was set at NCE 30 50 80 for positive mode. Quantification was performed in the full scan negative mode.

Experiment [3] deals with UGTs from Actinidia deliciosa. Set-up: method as in Yar-Khing et al., 2014. Conditions: Actinidia deliciosa UGT; ref Yar-Khing et al., 2014; cited from earlier work.
The test system of experiment [4] is UGT85A84. Description: Transient over-expression of OfUGTs in Nicotiana benthamiana leaves with aglycone infiltration, glycosides by GC-MS. It counts as in vivo, Osmanthus fragrans. The following applies: N. benthamiana leaves, 50 µM linalool and 200 µM linalool oxides infiltrated, 4 h; GC-MS after β-glucosidase.
Description: Transient expression experiments with Nicotiana benthamiana leaves were performed as described by [Zeng et al. (2016)]. […] Five days after the inoculation, the leaves were infiltrated with different aglycone solutions (50 µM linalool and 200 µM linalool oxides in 0.5 M MES + 1 M MgCl2). Four hours after infiltration, the leaves were detached and frozen at –80°C for glycoside determination ([Yar-Khing et al., 2014]). Glycoside extraction coupled with GC-MS was performed to quantify the glycoside contents according to the previously described methods ([Zheng et al., 2017]).
The experiments of transient over-expression coupled with the substrate injection in N. benthamiana leaves were conducted to investigate the glycosides produced by candidate OfUGTs in planta. The leaves were infiltrated with Super1300-OfUGT or a control construct in the presence of linalool and its oxides. The glycosides were then extracted and purified after incubation. Subsequently, GC-MS analysis calculated the glycoside contents by quantifying the corresponding aglycones released from the glycosides.
The N. benthamiana leaves were infiltrated with a control construct (S1300-GUS) or S1300-OfUGTs in the presence of linalool and its oxides. […] Different letters indicate significant difference as determined by one-way ANOVA followed by LSD t-test (P 0.05).
Another experiment relates to PpUGT85A2. More on the design: method as in Wu et al., 2018. Conditions: Prunus persica UGT; ref Wu et al., 2018; cited from earlier work.
Where [5] appears, read: aglycone as varied substrate, fixed UDP-Glc 0.5 mM.
Setting [6] is: aglycone as varied substrate, fixed UDP-Glc 0.5 mM, 37°C, 1 h.

Where “and” joins values, the source holds several entries; their conditions need not be identical. Equal entries are not always repeated.

`OCc1ccccc1` [benzyl alcohol]: the “Relative activity of CsGT1 towards substrate” value (“Relative activity” below) in the experiment on CsGT1 is listed as 48%. For the molecule `CC(C)=CCC[C@H](C)CCO` [S-Citronellol], the Km with UGTs from Vitis vinifera is 55 ± 1.3 µM. For the molecule `CC(C)=CCC/C(C)=C/CO[C@@H]1O[C@H](CO)[C@@H](O)[C@H](O)[C@H]1O` [Geranyl β-D-glucopyranoside], the Km in experiment [1] was 78.1 ± 19.6 µM. Turning to `C=CCc1ccc(O)c(OC)c1` [eugenol], the “Relative activity” value in the experiment with CsGT1 is listed as 84%. As to `CC/C=C\CCO` [(Z)-3-hexenol], the “Relative activity” value in the experiment on CsGT1 is 62%. `C[C@@H]1O[C@H](OP(=O)(O)OP(=O)(O)OC[C@H]2O[C@@H](n3ccc(=O)[nH]c3=O)[C@H](O)[C@@H]2O)[C@H](O)[C@H](O)[C@H]1O` [UDP-Rha, UDP-rhamnose]: in the experiment with UGT85A84 [2], the “Glycosylated products formed with the sugar donor (LC-MS)” value is on record as “No products were detected”. Regarding `OCCc1ccccc1` [2-PE, 2-phenylethanol], in the experiment on CsGT1, the “Relative activity” value is 9.2%. As for `CC(C)=CCC/C(C)=C/CO` [geraniol], the Km was 76.2 ± 11.1 µM in experiment [3] and 44.2 ± 3 µM in experiment [1]. Also, the “Relative activity” value in the experiment with CsGT1 is given as 100%. Consider `C=CC1(C)CCC(C(C)(C)O)O1` (stereo not drawn) [linalool oxide], for which the “k cat/K m” value in the experiment with UGT85A84 [2] (setting [5]) was 10494 s⁻¹ mM⁻¹. For the same molecule, the k cat in the experiment with UGT85A84 [2] (setting [6]) was found to be 2.12 S ^-1. Also, the “Glycoside of the injected aglycone in UGT85A84-infiltrated leaves versus control” value in the experiment on UGT85A84 [4] is reported as “remarkable increase”.

`CCCCCCO` [Hexanol]: the Km in experiment [3] is 117 ± 28.1 µM. For the molecule `C=CC(C)(O)CCC=C(C)C` (stereo not drawn) [linalool], the Km was 463 ± 80 µM in the experiment on PpUGT85A2; 136 µM with UGT85A84 [2] (aglycone as varied substrate, fixed UDP-Glc 0.5 mM, 37°C, 1 h, mean and SEM, n = 3). The “k cat/K m” value with UGT85A84 [2] (setting [5]) amounted to 718 s⁻¹ mM⁻¹. In the experiment with UGT85A84 [2] (setting [6]), the k cat came out at 0.09 S ^-1. Moreover, the “Relative activity” value in the experiment on CsGT1 is on record as 1.4%. Also, the “Glycoside of the injected aglycone in UGT85A84-infiltrated leaves versus control” value in the experiment with UGT85A84 [4] is on record as “no significant increase”. Turning to `C=CC(C)(O)CC/C=C(\C)CO` (stereo not drawn) [8-Hydroxylinalool], the Km with UGTs from Vitis vinifera was 33 ± 1.8 µM. Consider `CCCCCC(O)CC` (stereo not drawn) [Octan-3-ol], for which, in experiment [3], the Michaelis-Menten constant (Km) was 66.6 ± 16.2 µM. For the molecule `O=c1ccn([C@@H]2O[C@H](COP(=O)(O)OP(=O)(O)O[C@H]3OC[C@@H](O)[C@H](O)[C@H]3O)[C@@H](O)[C@H]2O)c(=O)[nH]1` [UDP-Xyl, UDP-xylose], in the experiment with UGT85A84 [2], the “Glycosylated products formed with the sugar donor (LC-MS)” value was “No products were detected”.

In the case of `CC(C)=CCCC(C)CCO` (stereo not drawn) [Citronellol], the Km with UGTs from Vitis vinifera is 433 µM and 306 µM and 445 µM.

Broadly, the Km is the concentration of substrate that gives half-maximal velocity.
